Experimental findings from the OPERA property sets (Mansouri et al. 2018) are described below.

Broadly, the solubility is the concentration that dissolves in the medium under given conditions. A high value points to a readily soluble substance.

≈ marks a conversion by molar mass, not a printed value.

The conditions of the first data set: 20 °C.
As for `ClC(Br)C(Cl)Br` (stereo not given), the solubility worked out at 2.73 mM (≈ 700 µg/mL).
Take `BrCC(Br)Br`: the solubility worked out at 1.87 mM (≈ 500 µg/mL).
Still for that read-out and setting: to `ClC(Br)CBr` (stereo not given) belongs 2.79 mM (≈ 620 µg/mL).

The data set is the same for the next values; noted with them: 24 °C.
For `FC(F)(Cl)CCl`, the solubility came out at 6.3 mM (≈ 850 µg/mL).

The same data set, now with this note: 25 °C.
Compound `FCCCl` yielded a solubility of 296 mM (≈ 24400 µg/mL).
The compound `FC(F)(Br)C(F)(F)Br` came in with a solubility of 0.0115 mM (≈ 3 µg/mL).
For `CCBr`, the solubility worked out at 82 mM (≈ 8940 µg/mL).
The compound `FC(F)(F)C(Cl)Cl` returned a solubility of 13.7 mM (≈ 2100 µg/mL).
On the same count and under the same terms, in the case of `ClC(Cl)C(Cl)(Cl)Cl` it was 2.37 mM (≈ 480 µg/mL).
On the same count and under the same terms, in the case of `ClCC(Cl)Cl` it was 33.1 mM (≈ 4420 µg/mL); in that of `ClCCBr`, 48.1 mM (≈ 6900 µg/mL).
On the same count and under the same terms, to `ClCC(Cl)(Cl)Cl` belongs 6.38 mM (≈ 1070 µg/mL); to `CCI`, 25.1 mM (≈ 3910 µg/mL); to `FC(F)(F)C(Cl)Br` (stereo not given), 19.8 mM (≈ 3900 µg/mL).
`CC(F)(Cl)Cl`: the solubility turned out to be 3.59 mM (≈ 420 µg/mL).
As for `CCCl`, the solubility was 88 mM (≈ 5680 µg/mL).
`C=C(Cl)Cl` showed a solubility of 23.2 mM (≈ 2250 µg/mL).
For the compound `BrC(Br)C(Br)Br`, the solubility stood at 1.91 mM (≈ 659 µg/mL).
`CC(Cl)(Cl)Cl`: the solubility stood at 11.2 mM (≈ 1490 µg/mL).
Still for that read-out and setting: in the case of `ClC(Cl)=C(Cl)Cl` it was 1.21 mM (≈ 200 µg/mL).
